According to patent US20180184661A1, “Improved Herbicidal Composition, Method and Use” (Arysta LifeScience Benelux Sprl, priority 2015, published 2018):

What was measured:
Assay in all cases: Pre-emergence field trial in citrus, residual broadleaf weed control
Format in all cases: in vivo
[1] = system: fleabane (Conyza bonariensis, ERIBO); details: Spain, diuron 900 and/or oxyfluorfen 90 g a.i./ha, rated 15 to 90 days after application
Method: (§1) Field trials were conducted in citrus crops using standard herbicide small plot research methodology. Plots varied from 12 square meters (m^2) to 30 m^2 (2×15) with 3 to 4 replicates per treatment. The citrus crops were grown using normal cultural practices for the respective areas for the trials, using normal planting, fertilization, watering, flooding and maintenance for pests to ensure good growth of the crop and the weeds.
(§2) All treatments in the field trials were applied with a knapsack sprayer using compressed air as propellant. The sprayer was equipped with a boom and flat fan nozzles, and calibrated to apply homogeneously a spray volume of 200 to 400 litres/hectare at constant pressure.
(§3) Diuron in combination with oxyfluorfen, in the form of a ready for use formulation, was compared to a diuron formulation and an oxyfluorfen formulation, at dose rates of respectively […]., 900 g a.i./ha and 90 g a.i./ha.
(§4) Treatments were rated at different intervals from treatment to evaluation, from 15 to 120 days after application as compared to the untreated control plants. Assessment were done recording the percentage of ground covered by weeds and the visual efficacy on a scale of 0 to 100 percent where 0 corresponds to no weed control and 100 corresponds to complete weed control.
(§5) Trials were conducted under field conditions in Spain. Trial sites were located in commercially grown European citrus crop. The citrus trees were grown using normal cultural practices for fertilization, seeding and maintenance to ensure good growth of the crop and the weeds. The trials were conducted using normal research methodology. Plots varied from 12 square meters (m^2) to 30 m^2 (2×15) with 3 to 4 replicates per treatment. All treatment results are an average of 3 to 4 replicates. The trials had naturally occurring populations of weeds. The weed spectrum included, but was not limited to black nightshade (Solanum nigrum; SOLNI), Sow thistle (Sonchus tenerrimus, SONTE), fleabane (Conyza bonariensis, ERIBO), DIPER, hairy fleabane (Conyza bonariensis, ERIBO), redroot pigweed (Amaranthus retroflexus, AMA).
(§6) Treatments consisted applications of diuron+oxyfluorfen, diuron solo or oxyfluorfen solo. […] Colby's equation was used to determine the herbicidal effects expected from the mixtures (Colby, S. R. Calculation of the synergistic and antagonistic response of herbicide combinations. Weeds 1967, 15, 20-22.). The following equation was used to calculate the expected activity of mixtures containing two active ingredients, A and B:
(§7) A=observed efficacy of active ingredient A at the s e concentration as used in the mixture. B=observed efficacy of active ingredient B at the s e concentration as used in the mixture.
(§8) Ob=Observed visual weed control, Ex=Expected weed control as defined by Colby Equation

[2] = system: Wall-rocket (Diplotaxis erucoides, DIPER); details: trial SRES14 061 230 HE, Spain, diuron 900 and/or oxyfluorfen 90 g a.i./ha, rated 15 to 90 days after application
Method: as §1, §2, §3, §4, §5, §6, §7, §8

[3] = system: pigweed, redroot (Amaranthus retroflexus, AMARE); details: trial SRES14 061 230 HE, Spain, diuron 900 and/or oxyfluorfen 90 g a.i./ha, rated 15 to 90 days after application
Method: as §1, §2, §3, §4, §5, §6, §7, §8

[4] = system: Sow thistle (Sonchus tenerrimus, SONTE); details: Spain, diuron 900 and/or oxyfluorfen 90 g a.i./ha, rated 15 to 90 days after application
Method: as §1, §2, §3, §4, §5, §6, §7, §8

[5] = system: black nightshade (Solanum nigrum, SOLNI); details: trial SRES14 059 230 HE, Spain, diuron 900 and/or oxyfluorfen 90 g a.i./ha, rated 15 to 90 days after application
Method: as §1, §2, §3, §4, §5, §6, §7, §8

SMILES | % Control ERIBO Obs ([1]; trial SRES14 059 230 HE) [%] | % Control ERIBO Obs ([1]; trial SRES14 060 230 HE) [%] | % Control ERIBO Obs ([1]; trial SRES14 061 230 HE) [%] | % Control DIPER Obs [2] [%] | % Control AMARE Obs [3] [%] | % Control SONTE Obs ([4]; trial SRES14 059 230 HE) [%] | % Control SONTE Obs ([4]; trial SRES14 060 230 HE) [%] | % Control SOLNI Obs [5] [%]
CN(C)C(=O)Nc1ccc(Cl)c(Cl)c1 [Diuron, N′-(3,4-dichlorophenyl)-N,N-dimethylurea] | 62.5 | 46.3 | 28.8 | 88.8 | 53.8 | 57.5 | 45 | 55
CCOc1cc(Oc2ccc(C(F)(F)F)cc2Cl)ccc1[N+](=O)[O-] [Oxyfluorfen, 2-chloro-1-(3-ethoxy-4-nitrophenoxy)-4-(trifluoromethyl)benzene] | 35 | 47.5 | 43.8 | 20 | 45 | 28.8 | 10 | 47.5
